Counter-ions that a name gives are not always drawn. ± gives the standard deviation of the averaged measurements.
Tested on: HepaRG
Test: LDH release cytotoxicity, % of total lysis control; higher = more cytotoxic
Conditions: 48 h
Outline: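 On collagen I-coated 96-well plates, single-lot HepaRG cells were exposed for 48 h, in duplicate, to eight-point half-log series of test chemicals beginning at 100 µM. The exposure medium was serum-free induction medium with 0.5% DMSO, and total lysis wells got 0.1% Triton X. Resorufin fluorescence from the CytoTox-ONE reaction, read on a Tecan Safire, reported LDH in 50 µL of spent medium. Percent cytotoxicity came from normalization to on-plate vehicle and total lysis controls, averaged over the duplicates.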

CCCCN1C(=O)C(C(O)C2CCCCC2)NC(=O)C12CCN(Cc1ccc(Oc3ccc(C(=O)O)cc3)cc1)CC2 (stereo unspecified) [Aplaviroc hydrochloride]
Conditions | LDH release cytotoxicity [%]
0.03162 µM | -1.85 ± 0.7
0.1 µM | -1.71 ± 0.38
0.3162278 µM | -3.23 ± 0.59
1 µM | -2.439 ± 0.0083
3.16228 µM | -3.02 ± 0.42
10 µM | 0.0163 ± 0.13
31.6228 µM | 7.4 ± 0.52
100 µM | 27.4 ± 2.6

COC(=O)c1ccccc1N [Methyl 2-aminobenzoate]
Conditions | LDH release cytotoxicity [%]
0.03162 µM | -1.17 ± 0.31
0.1 µM | 0.00334 ± 0.73
0.3162278 µM | 0.277 ± 0.2
1 µM | -0.0267 ± 0.46
3.16228 µM | 0.248 ± 0.12
10 µM | 0.495 ± 0.94
31.6228 µM | 0.0802 ± 0.54
100 µM | 1.28 ± 0.41

CC[C@H](C)C1O[C@]2(C=C[C@@H]1C)C[C@@H]1C[C@@H](C/C=C(\C)[C@@H](O[C@H]3C[C@H](OC)[C@@H](O[C@H]4C[C@H](OC)[C@H](NC)[C@H](C)O4)[C@H](C)O3)[C@@H](C)/C=C/C=C3\CO[C@@H]4[C@H](O)C(C)=C[C@@H](C(=O)O1)[C@]34O)O2 (stereo partly specified) [Emamectin benzoate]
Conditions | LDH release cytotoxicity [%]
0.031623 µM | -1.83 ± 1
0.1 µM | -1.09 ± 0.55
0.316228 µM | -2.57 ± 0.26
1 µM | -3.84 ± 0.41
3.16228 µM | -2.51 ± 1.1
10 µM | 5.16 ± 1.4
31.6228 µM | 83.4 ± 1.7
100 µM | 87 ± 4.4

Oc1ccccc1Cl [2-Chlorophenol]
Conditions | LDH release cytotoxicity [%]
0.03162 µM | -2.95 ± 2.4
0.1 µM | -4.22 ± 0.094
0.3162278 µM | -4.63 ± 0.13
1 µM | -4.14 ± 0.96
3.16228 µM | -3.68 ± 0.21
10 µM | -3.65 ± 0.22
31.6228 µM | -2.05 ± 0.13
100 µM | 1.5 ± 0.076

CCCCCCCCCC[N+](C)(C)[O-] [N,N-Dimethyldecylamine oxide]
Conditions | LDH release cytotoxicity [%]
0.031623 µM | -1.68 ± 1.2
0.1 µM | -2.43 ± 1.6
0.316228 µM | -2.73 ± 1.6
1 µM | -2 ± 1.5
3.16228 µM | -2.26 ± 0.2
10 µM | -2.07 ± 0.077
31.6228 µM | -0.853 ± 1
100 µM | 1.25 ± 0.8

C[N+]1(C)CCCCC1 [1,1-Dimethylpiperidinium chloride]
Conditions | LDH release cytotoxicity [%]
0.03162 µM | -1.22 ± 0.36
0.1 µM | -0.187 ± 0.78
0.3162278 µM | -1.4 ± 0.52
1 µM | -1.35 ± 0.62
3.16228 µM | 0.248 ± 0.65
10 µM | 0.722 ± 0.62
31.6228 µM | -0.465 ± 0.11
100 µM | 0.762 ± 0.26

O=C(NC(c1ccccc1)C1CCCCN1)c1cccc(C(F)(F)F)c1Cl (stereo unspecified)
Conditions | LDH release cytotoxicity [%]
0.03162 µM | -1.29 ± 1.3
0.1 µM | -1.57 ± 0.071
0.3162278 µM | -0.0611 ± 0.068
1 µM | -1.79 ± 0.54
3.16228 µM | -0.61 ± 1.2
10 µM | 0.734 ± 0.85
31.6228 µM | 24.2 ± 1.3
100 µM | 86.2 ± 3.2

Cc1cc(C2CC2)nc(Nc2ccccc2)n1 [Cyprodinil]
Conditions | LDH release cytotoxicity [%]
0.03162 µM | -1.37 ± 0.96
0.1 µM | -0.753 ± 0.69
0.3162278 µM | -0.874 ± 1.2
1 µM | -1.16 ± 0.7
3.16228 µM | -0.24 ± 0.55
10 µM | -0.264 ± 0.58
31.6228 µM | 0.71 ± 0.5
100 µM | 11.3 ± 0.15

c1ccc2c(c1)Cc1ccccc1-2 [Fluorene]
Conditions | LDH release cytotoxicity [%]
0.03162 µM | -1.56 ± 0.24
0.1 µM | -1 ± 0.37
0.3162278 µM | -0.941 ± 0.29
1 µM | -0.74 ± 0.44
3.16228 µM | -0.5867 ± 0.0032
10 µM | -1.05 ± 0.38
31.6228 µM | -0.324 ± 0.11
100 µM | -0.2 ± 0.14

Oc1ccc(Cl)cc1Cc1ccccc1 [Clorophene]
Conditions | LDH release cytotoxicity [%]
0.031939 µM | -1.4 ± 0.39
0.101 µM | -1.14 ± 0.47
0.31939 µM | -1.6 ± 0.87
1.01 µM | -1.11 ± 1.2
3.1939004 µM | -0.749 ± 0.49
10.1 µM | -0.231 ± 0.26
31.939 µM | -0.479 ± 0.25
101 µM | 54 ± 2

CCCCC(CC)COC(=O)CCCCC(=O)OCC(CC)CCCC (stereo unspecified) [Bis(2-ethylhexyl)hexanedioate]
Conditions | LDH release cytotoxicity [%]
0.03162 µM | -2.21 ± 0.34
0.1 µM | -2.881 ± 0.019
0.3162278 µM | -3.04 ± 0.8
1 µM | -2.88 ± 0.9
3.16228 µM | -2.66 ± 0.66
10 µM | -2.86 ± 0.26
31.6228 µM | -2.54 ± 0.088
100 µM | -1.41 ± 0.75

Cc1ccccc1N [2-Methylaniline]
Conditions | LDH release cytotoxicity [%]
0.03162 µM | -1.2 ± 0.49
0.1 µM | -0.736 ± 0.52
0.3162278 µM | -0.698 ± 0.12
1 µM | -0.759 ± 0.47
3.16228 µM | -1.37 ± 0.23
10 µM | -0.264 ± 0.12
31.6228 µM | -0.213 ± 0.19
100 µM | 0.285 ± 0.61

Oc1ccc2c(c1)OCC(N1CCC(O)(c3ccc(F)cc3)CC1)C2O (stereo unspecified)
Conditions | LDH release cytotoxicity [%]
0.01581 µM | -1 ± 0.72
0.05 µM | 0.886 ± 1.8
0.1581139 µM | 0.0464 ± 0.5
0.5 µM | 0.111 ± 0.36
1.5811388 µM | 0.298 ± 0.66
5 µM | 0.5713 ± 0.0015
15.8114 µM | 1.05 ± 0.36
50 µM | 0.322 ± 0.4

C#CC1(O)CCC2C3CCC4=CC(=O)CCC4C3CCC21C (stereo unspecified) [Norethindrone]
Conditions | LDH release cytotoxicity [%]
0.03162 µM | -0.43 ± 0.47
0.1 µM | 0.00115 ± 0.14
0.3162278 µM | -0.373 ± 0.45
1 µM | -0.047 ± 0.53
3.16228 µM | 0.727 ± 1
10 µM | 0.906 ± 1.7
31.6228 µM | 2.7 ± 1.3
100 µM | 2.69 ± 0.34

CC(=NC#N)N(C)Cc1ccc(Cl)nc1 [Acetamiprid]
Conditions | LDH release cytotoxicity [%]
0.03162 µM | -2.01 ± 1.8
0.1 µM | -2.67 ± 0.84
0.3162278 µM | -2.61 ± 0.31
1 µM | -2.64 ± 0.13
3.16228 µM | -2.01 ± 0.025
10 µM | -2.44 ± 1.2
31.6228 µM | -2.262 ± 0.022
100 µM | 0.254 ± 0.19

O=C(c1ccc(O)cc1O)c1ccc(O)cc1O [2,2',4,4'-Tetrahydroxybenzophenone]
Conditions | LDH release cytotoxicity [%]
0.031623 µM | -0.783 ± 0.28
0.1 µM | -1.13 ± 1.1
0.316228 µM | -1.37 ± 0.79
1 µM | -1.52 ± 0.89
3.16228 µM | -2.25 ± 0.71
10 µM | -1.76 ± 0.33
31.6228 µM | 1.26 ± 0.54
100 µM | 35.3 ± 1.2

CCCN(C1CCN(C(=O)C2CCNCC2)CC1)C1CCc2ccc(OC)cc2C1 (stereo unspecified)
Conditions | LDH release cytotoxicity [%]
0.03162 µM | -0.976 ± 1.3
0.1 µM | -1.04 ± 1.4
0.3162278 µM | -2.19 ± 0.35
1 µM | -1.39 ± 0.37
3.16228 µM | -1.79 ± 0.61
10 µM | -1.52 ± 0.12
31.6228 µM | 0.507 ± 0.4
100 µM | 45.7 ± 1.9

Source: the supplement of paper PMC7840683
